Test results reported in patent US10259823B2, “GLP-1 receptor modulators” (Celgene International II SÀRL, priority 2013, dated 2019).
pEC50: −log10 of the molar value.

Target: T1, GLP-1R (Homo sapiens, UniProt P43220)
T1 construct: host or cells: CRE-bla CHO-K1
Assay: EC20 GLP-1(9-36) PAM cAMP assay: dose response of compound in the presence of fixed concentration of GLP-1(9-36)
Type: cell-based
Conditions: GLP-1R CRE-bla CHO-K1 cells, compound dose response with fixed GLP-1(9-36), 30 min at 37° C.
Protocol: EC20 GLP-1(9-36) PAM cAMP assay: dose response of compound in the presence of fixed concentration of GLP-1 (9-36).
GLP-1R CRE-bla CHO-K1 cells cultured in growth medium (DMEM-High glucose, 10% dialyzed FBS, 0.1 mM NEAA, 25 mM Hepes, 100 U/mL penicillin/100 μg/mL streptomycin, 5 μg/mL Blasticidin, 600 μg/mL Hygromycin) were trypsinized and plated in suspension into 384 well white flat bottom plates at 5000 cells/well in 12 μL assay buffer (Hanks Balanced Salt solution, 10 mM hepes, 0.1% BSA, pH 7.4). A 5× compound dose response curve (12-point) was generated in assay buffer containing 1.5 mM IBMX, 4% DMSO. GLP-1(9-36) was diluted to 4.2 μM in assay buffer containing 1.5 mM IMBX and 4% DMSO. The 5× compound dose response was added (3 μL), followed by 0.5 μL of GLP-1(9-36) and cells were incubated for 30 min at 37° C. Direct detection of cAMP was carried out using DiscoveRx HitHunter cAMP kit according to manufacturer's instructions and luminescence was read using a SpectraMax M5 plate reader. Luminescence was converted to total cAMP using a cAMP standard curve and data was analyzed by non-linear regression to determine the EC50 and Emax.
GLP-1(7-36): […]-NH2 (SEQ ID NO: GLP-1(9-36): […]-NH2(SEQ ID NO: 3) GLP-1(7-36) was purchased from GenScript. GLP-1(9-36) was purchased from Biopeptide Co., Inc.

T1 sequence (P43220 24-463): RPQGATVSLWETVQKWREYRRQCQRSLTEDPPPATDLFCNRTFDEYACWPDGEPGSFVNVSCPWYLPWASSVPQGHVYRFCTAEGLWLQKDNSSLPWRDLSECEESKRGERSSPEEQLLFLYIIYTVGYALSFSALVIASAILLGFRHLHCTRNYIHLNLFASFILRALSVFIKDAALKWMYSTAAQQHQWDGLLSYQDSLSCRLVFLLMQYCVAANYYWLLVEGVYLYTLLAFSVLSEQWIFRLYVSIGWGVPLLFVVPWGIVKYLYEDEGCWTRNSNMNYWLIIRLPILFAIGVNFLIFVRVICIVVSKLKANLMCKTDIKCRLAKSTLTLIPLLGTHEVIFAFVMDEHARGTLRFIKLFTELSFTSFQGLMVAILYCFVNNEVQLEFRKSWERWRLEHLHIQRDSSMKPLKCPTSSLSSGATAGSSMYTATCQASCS
T1 sequence (P01275 100-127 partner limits assumed): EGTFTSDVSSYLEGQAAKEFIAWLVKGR

| SMILES | pEC50 |
| --- | --- |
| C/C=C/CCCOc1ccc(-c2cnc(-c3ccc(C[C@H](NC(=O)c4ccc(C(C)(C)C)cc4)C(=O)NCCC(=O)O)cc3)nc2)cc1 [Compound 714] | 5.30 to 5.60 |
| CCCCCCCOC1CCN(c2cnc(-c3ccc(C[C@H](NC(=O)c4ccc(C(C)(C)C)cc4)C(=O)NCCC(=O)O)cc3)nc2)CC1 [Compound 693] | 5.00 to 5.30 |
| CCCCCCCOCCc1ccc(-c2nc(-c3ccc(C(NC(=O)c4ccc(C(C)(C)C)cc4)C(=O)O)cc3)no2)cc1 (centres unmarked) [Compound 71] | 5.30 to 5.60 |
| C[C@@H](NC(=O)[C@H](Cc1ccc(-c2ncc(-c3ccc(OCc4ccccc4)cc3F)cn2)cc1)NC(=O)c1ccc(C(C)(C)C)s1)C(=O)O [Compound 1024] | 5.60 to 6.10 |
| CC(C)(C)c1ccc(C(=O)N[C@@H](Cc2ccc(-c3ncc(C4CCC(C(C)(C)C)CC4)cn3)cc2)C(=O)NCCC(=O)O)cc1 (some centres unmarked) [Compound 674] | 5.00 to 5.30 |
| CC(C)(C)CCCOc1ccc(-c2cnc(-c3ccc(C[C@H](NC(=O)c4ccc(C(C)(C)C)s4)C(=O)NC(C(=O)O)C(O)c4ccccc4)cc3)nc2)cc1 (some centres unmarked) [Compound 944] | > 6.10 |
| CCCCCCCOc1ccc(-c2cnc(-c3ccc(C[C@H](NC(=O)c4ccc(OC(F)(F)F)cc4)C(=O)N[C@H](C)C(=O)O)cc3)nc2)cc1 [Compound 821] | 5.60 to 6.10 |
| CCCC/C=C/COc1ccc(-c2cnc(-c3ccc(C[C@H](NC(=O)c4ccc(C(C)(C)C)cc4)C(=O)NCCC(=O)O)cc3)nc2)cc1 [Compound 715] | 5.30 to 5.60 |
| CCCCCCCOc1ccc(-c2cnc(-c3ccc(C[C@H](NC(=O)c4ccc(OC(C)C)cc4)C(=O)N[C@H](C)C(=O)O)cc3)nc2)cc1 [Compound 820] | 5.30 to 5.60 |

More lines, now with the values ahead:

| pEC50 | SMILES |
| --- | --- |
| 5.60 to 6.10 | CCCCCCCOc1ccc(-c2cnc(-c3ccc(C[C@H](NC(=O)c4ccc(C(C)(C)C)cc4)C(=O)N[C@@H](Cc4cn(C)cn4)C(=O)O)cc3)nc2)cc1 [Compound 576] |
| 5.60 to 6.10 | CCCCCCCOc1ccc(-c2cnc(-c3ccc(C[C@H](NC(=O)[C@H]4CC[C@H](C(C)(C)C)CC4)C(=O)N4CC[C@H](C(=O)O)C4)cc3)nc2)cc1 [Compound 858] |
| 5.60 to 6.10 | CCCCCCCOc1ccc(-c2cnc(-c3ccc(C[C@H](NC(=O)c4ccc(C(C)(C)C)s4)C(=O)N[C@H]4CCC[C@H]4C(=O)O)cc3)nc2)cc1 [Compound 382] |
| > 6.10 | CCCCCCCOc1ccc(-c2cnc(-c3ccc(C[C@H](NC(=O)c4ccc(C(C)(C)C)s4)C(=O)N[C@@H](CC(=O)NC4CC4)C(=O)O)cc3)nc2)cc1 [Compound 514] |
| > 6.10 | CCCCCCCOc1ccc(-c2cnc(-c3ccc(C[C@H](NC(=O)c4ccc(C(C)(C)C)s4)C(=O)NC(C(=O)O)c4ccc(C)cc4)cc3)nc2)cc1 (some centres unmarked) [Compound 617] |
| 5.30 to 5.60 | CCCCCCCOc1ccc(-c2cnc(-c3ccc(C[C@H](NC(=O)c4oc(C(C)(C)C)cc4C)C(=O)N4CC[C@H](C(=O)O)C4)cc3)nc2)cc1 [Compound 866] |
| 5.00 to 5.30 | CCCCCCCOc1ccc(-c2cnc(-c3ccc(C[C@H](NC(=O)c4ccc(C(C)(C)C)cc4)C(=O)NC[C@H]4CCNC4)cc3)nc2)cc1 [Compound 413] |
| > 6.10 | CCCCCCCOc1ccc(-c2cnc(-c3ccc(C[C@H](NC(=O)c4ccc(C(C)(C)C)cc4)C(=O)NC(CCS(C)(=O)=O)C(=O)O)cc3)nc2)cc1 (some centres unmarked) [Compound 570] |
